The target in assay [1] is T1, Estrogen receptor (Homo sapiens) (UniProt P03372).
T1 sequence (whole entry): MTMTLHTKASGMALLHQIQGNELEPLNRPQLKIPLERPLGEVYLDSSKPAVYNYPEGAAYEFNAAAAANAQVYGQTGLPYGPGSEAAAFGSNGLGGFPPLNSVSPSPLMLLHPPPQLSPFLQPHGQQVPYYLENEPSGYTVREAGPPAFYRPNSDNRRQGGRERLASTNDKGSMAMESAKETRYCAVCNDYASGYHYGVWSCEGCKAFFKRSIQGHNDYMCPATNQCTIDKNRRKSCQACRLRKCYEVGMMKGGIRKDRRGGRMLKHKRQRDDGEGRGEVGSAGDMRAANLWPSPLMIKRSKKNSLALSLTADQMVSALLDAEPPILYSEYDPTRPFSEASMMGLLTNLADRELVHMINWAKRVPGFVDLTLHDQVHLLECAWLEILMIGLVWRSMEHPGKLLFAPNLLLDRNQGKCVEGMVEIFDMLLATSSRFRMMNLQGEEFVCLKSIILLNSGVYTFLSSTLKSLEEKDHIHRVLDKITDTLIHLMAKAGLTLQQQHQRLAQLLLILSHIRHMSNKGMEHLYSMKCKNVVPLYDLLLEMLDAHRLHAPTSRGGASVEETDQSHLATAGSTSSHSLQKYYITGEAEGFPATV
Briefly: Displacement of [6,7-3H]17beta-estradiol from human recombinant estrogen receptor-alpha after 18 hrs by liquid scintillation counting analysis.

Assay [2] has as its target T1, Estrogen receptor (Homo sapiens). Briefly: Agonist activity at estrogen receptor in human MCF7 cells assessed as induction of cell proliferation at 1 x 10^-13 to 1 x 10^-5 M after 5 days by WST-8 assay relative to estradiol. The class given is cell-based.

As for `CN(C)CCOc1ccc(C23CC4CC(CC(c5ccc(O)cc5)(C4)C2)C3)cc1`, the inhibition result in assay [1] is “Dose-dependent effect”. For the same molecule, the Emax in assay [2] was 17%.

(Values after ChEMBL document CHEMBL3286276, “Novel estrogen receptor (ER) modulators containing various hydrophobic bent-core structures” (Bioorg Med Chem, 2014).)
